Target: human activated kallikrein enzyme (Homo sapiens, UniProt P03952)
Assay: Inhibition of human activated plasma kallikrein, fluorogenic peptide substrate (PFR-AMC), 500 pM enzyme format
Type: biochemical
Conditions: 500 pM activated kallikrein, 30 min preincubation, 10 min reaction, room temperature, read-out: Primary Dose Response Assay: Average EC50
Experimental: Compounds were evaluated for inhibition of the human activated kallikrein enzyme in two formats of an assay employing a fluorogenic peptide substrate. In one assay format, the concentrations of reagents were as follows: 20 mM Tris pH 7.5, 1 mM EDTA, 150 mM sodium chloride, 0.1% PEG-400, 0.1% Triton X-100, 500 pM activated kallikrein enzyme, […] Pro-Phe-Arg-7-amido-4-methylcoumarin (PFR-AMC) substrate. Prior to reaction initiation with substrate, enzyme and inhibitors were preincubated for 30 min at room temperature. After initiation with substrate, reactions were incubated for 10 min at room temperature and fluorescence emission at 460 nm from 380 nm excitation measured with a microplate reader. In another assay format, the concentrations of reagents were as follows: 20 mM Tris pH 7.5, 1 mM EDTA, 150 mM sodium chloride, 0.1% PEG-400, 0.1% Triton X-100, 5 pM activated kallikrein enzyme, 300 uM PFR-AMC substrate. Prior to reaction initiation with substrate, enzyme and inhibitors were preincubated for 30 min at room temperature. After initiation with substrate, reactions were incubated for 18 hr at room temperature and fluorescence emission at 460 nm from 380 nm excitation measured with a microplate reader.

Sequence of human activated kallikrein enzyme (P03952 391-638 limits assumed): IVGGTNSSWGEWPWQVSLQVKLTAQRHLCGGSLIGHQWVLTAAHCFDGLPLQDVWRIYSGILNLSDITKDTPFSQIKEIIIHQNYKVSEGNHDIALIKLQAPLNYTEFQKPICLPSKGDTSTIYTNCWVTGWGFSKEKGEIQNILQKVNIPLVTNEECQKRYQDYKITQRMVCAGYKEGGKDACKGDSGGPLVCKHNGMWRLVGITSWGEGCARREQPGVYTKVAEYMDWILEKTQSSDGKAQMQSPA
Sequence of human activated kallikrein enzyme (P03952 20-390 partner limits assumed): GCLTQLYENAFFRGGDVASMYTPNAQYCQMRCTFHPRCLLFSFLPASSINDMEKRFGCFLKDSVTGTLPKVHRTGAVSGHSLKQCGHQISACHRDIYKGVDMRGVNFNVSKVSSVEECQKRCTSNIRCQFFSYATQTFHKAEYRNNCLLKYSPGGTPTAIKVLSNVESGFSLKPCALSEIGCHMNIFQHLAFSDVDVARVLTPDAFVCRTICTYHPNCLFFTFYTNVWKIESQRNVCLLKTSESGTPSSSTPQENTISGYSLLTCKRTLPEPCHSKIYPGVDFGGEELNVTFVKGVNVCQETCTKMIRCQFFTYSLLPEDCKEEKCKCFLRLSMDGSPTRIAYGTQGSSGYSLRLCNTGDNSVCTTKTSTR

Row | Compound | EC50
1 | Cc1ccnc([C@H]2C[C@@H]2C(=O)Nc2cc(NCc3ccc(N4CC5CC5C4)nc3)ncn2)n1 (relative stereo) [Example 79, rac-(1S*,2S*)—N-(6-(((6-(3-azabicyclo[3.1.0]hexan-3-yl)pyridin-3-yl)methyl)amino)pyrimidin-4-yl)-2-(4-methylpyrimidin-2-yl)cyclopropane-1-carboxamide] | 0.0025 to 0.025 µM
2 | O=C(Nc1cc(NCc2ccc(Cn3ccccc3=O)cc2)cnn1)[C@H]1C[C@@H]1c1cccc(Cl)c1 (single isomer, unassigned) [Example 15] | 0.025 to 0.5 µM
3 | O=C(Nc1cc(NCc2ccc(Cn3ccccc3=O)cc2)cnn1)[C@@H]1C[C@H]1c1cccc(Cl)c1 (single isomer, unassigned) [Example 16] | < 0.0025 µM
4 | Cc1ccnc([C@@H]2C[C@H]2C(=O)Nc2cc(N3C[C@@H](O)C[C@@H]3c3cn4cc(C5CC5)cnc4n3)ncn2)c1 (single isomer, unassigned) [Example 74, (1S*,2S*)—N-(6-((2R,4S)-2-(6-cyclopropylimidazo[1,2-a]pyrimidin-2-yl)-4-hydroxypyrrolidin-1-yl)pyrimidin-4-yl)-2-(4-methylpyridin-2-yl)cyclopropane-1-carboxamide] | > 0.5 µM
5 | Cc1ccnc([C@H]2C[C@@H]2C(=O)Nc2cc(N[C@@H](C)c3nc4c(N5CC(=O)N(C)C5=O)cc(C5CC5)cn4n3)ncn2)n1 (single isomer, unassigned; isomer 2) [Example 108] | 0.0025 to 0.025 µM
6 | O=C(Nc1cc(OCc2ccc(Cn3cccn3)cc2)cnn1)C1CC12C(=O)Nc1ccccc12 (centres unmarked) [Example 7, N-(5-((4-((1H-pyrazol-1-yl)methyl)benzyl)oxy)pyridazin-3-yl)-2′-oxospiro[cyclopropane-1,3′-indoline]-2-carboxamide] | > 0.5 µM
7 | O=C(Nc1cc(NCc2nc3ccc(C4CC4)cn3n2)ncn1)[C@H]1C[C@@H]1c1cccc(Cl)c1 [Example 26, (1S,2S)-2-(3-chlorophenyl)-N-(6-(((6-cyclopropyl-[1,2,4]triazolo[1,5-a]pyridin-2-yl)methyl)amino)pyrimidin-4-yl)cyclopropane-1-carboxamide] | 0.025 to 0.5 µM
8 | O=C(Nc1cc(NCc2nc3ccc(C4CC4)nn3n2)ncn1)[C@H]1C[C@@H]1c1cccc(Cl)c1 [Example 28, (1S,2S)-2-(3-chlorophenyl)-N-(6-(((6-cyclopropyl-[1,2,4]triazolo[1,5-b]pyridazin-2-yl)methyl)amino)pyrimidin-4-yl)cyclopropane-1-carboxamide] | > 0.5 µM
9 | O=C(Nc1cc(NCc2nc3ncc(C4CC4)cn3n2)ncn1)[C@H]1C[C@@H]1c1cccc(Cl)c1 [Example 32, (1S,2S)-2-(3-chlorophenyl)-N-(6-(((6-cyclopropyl-[1,2,4]triazolo[1,5-a]pyrimidin-2-yl)methyl)amino)pyrimidin-4-yl)cyclopropane-1-carboxamide] | 0.0025 to 0.025 µM
10 | O=C(Nc1cc(NCc2ccc3ncc(C4CC4)cc3c2)ccn1)[C@H]1C[C@@H]1c1cccc(Cl)c1 [Example 33, (1S,2S)-2-(3-chlorophenyl)-N-(4-(((3-cyclopropylquinolin-6-yl)methyl)amino)pyridin-2-yl)cyclopropane-1-carboxamide] | 0.0025 to 0.025 µM
11 | O=C(Nc1cc(NCc2cnc3ccc(C4CC4)cc3c2)ccn1)[C@H]1C[C@@H]1c1cccc(Cl)c1 [Example 34, (1S,2S)-2-(3-chlorophenyl)-N-(4-(((6-cyclopropylquinolin-3-yl)methyl)amino)pyridin-2-yl)cyclopropane-1-carboxamide] | 0.0025 to 0.025 µM
12 | O=C(Nc1cc(NCc2cn3c(=O)n(C4CC4)ccc3n2)ccn1)[C@H]1C[C@@H]1c1cccc(Cl)c1 [Example 36, (1S,2S)-2-(3-chlorophenyl)-N-(4-(((6-cyclopropyl-5-oxo-5,6-dihydroimidazo[1,2-c]pyrimidin-2-yl)methyl)amino)pyridin-2-yl)cyclopropane-1-carboxamide] | 0.0025 to 0.025 µM
13 | CC(C)Oc1nccc2nc(CNc3cc(NC(=O)[C@H]4C[C@@H]4c4cccc(Cl)c4)ncn3)cn12 [Example 37, (1S,2S)-2-(3-chlorophenyl)-N-(6-(((5-isopropoxyimidazo[1,2-c]pyrimidin-2-yl)methyl)amino)pyrimidin-4-yl)cyclopropane-1-carboxamide] | > 0.5 µM
14 | CC(C)n1ccc2nc(CNc3cc(NC(=O)[C@H]4C[C@@H]4c4cccc(Cl)c4)ncn3)cn2c1=O [Example 38, (1S,2S)-2-(3-chlorophenyl)-N-(6-(((6-isopropyl-5-oxo-5,6-dihydroimidazo[1,2-c]pyrimidin-2-yl)methyl)amino)pyrimidin-4-yl)cyclopropane-1-carboxamide] | 0.025 to 0.5 µM
15 | O=C(Nc1cc(NCc2nc3c(N4CCOC4=O)cc(C4CC4)cn3n2)ncn1)[C@H]1C[C@@H]1c1cccc(Cl)c1 [Example 43, (1S,2S)-2-(3-chlorophenyl)-N-(6-(((6-cyclopropyl-8-(2-oxooxazolidin-3-yl)-[1,2,4]triazolo[1,5-a]pyridin-2-yl)methyl)amino)pyrimidin-4-yl)cyclopropane-1-carboxamide] | 0.0025 to 0.025 µM
16 | O=C(Nc1cc(NCc2cn3nc(C4CC4)cc(N4CCOC4=O)c3n2)ncn1)[C@H]1C[C@@H]1c1cccc(Cl)c1 [Example 44, (1S,2S)-2-(3-chlorophenyl)-N-(6-(((6-cyclopropyl-8-(2-oxooxazolidin-3-yl)imidazo[1,2-b]pyridazin-2-yl)methyl)amino)pyrimidin-4-yl)cyclopropane-1-carboxamide] | 0.0025 to 0.025 µM
17 | CCOC(=O)CCc1cc(C2CC2)cc2cc(CNc3cc(NC(=O)[C@H]4C[C@@H]4c4cccc(Cl)c4)ncn3)nn12 [Example 47, ethyl 3-(2-(((6-((1S,2S)-2-(3-chlorophenyl)cyclopropane-1-carboxamido)pyrimidin-4-yl)amino)methyl)-5-cyclopropylpyrazolo[1,5-a]pyridin-7-yl)propanoate] | 0.0025 to 0.025 µM
18 | O=C(O)CCc1cc(C2CC2)cc2cc(CNc3cc(NC(=O)[C@H]4C[C@@H]4c4cccc(Cl)c4)ncn3)nn12 [Example 48, 3-(2-(((6-((1S,2S)-2-(3-chlorophenyl)cyclopropane-1-carboxamido)pyrimidin-4-yl)amino)methyl)-5-cyclopropylpyrazolo[1,5-a]pyridin-7-yl)propanoic acid] | 0.0025 to 0.025 µM
19 | O=C(Nc1cc(NCc2cn3c(NC4CC4)nccc3n2)ncn1)[C@H]1C[C@@H]1c1cccc(Cl)c1 [Example 50, (1S,2S)-2-(3-chlorophenyl)-N-(6-(((5-(cyclopropylamino)imidazo[1,2-c]pyrimidin-2-yl)methyl)amino)pyrimidin-4-yl)cyclopropane-1-carboxamide] | > 0.5 µM
20 | CC(C)(O)CCc1cc(C2CC2)cc2cc(CNc3cc(NC(=O)[C@H]4C[C@@H]4c4cccc(Cl)c4)ncn3)nn12 [Example 51, (1S,2S)-2-(3-chlorophenyl)-N-(6-(((5-cyclopropyl-7-(3-hydroxy-3-methylbutyl)pyrazolo[1,5-a]pyridin-2-yl)methyl)amino)pyrimidin-4-yl)cyclopropane-1-carboxamide] | 0.0025 to 0.025 µM
21 | CC(C)(C#N)Cc1cc(C2CC2)cc2cc(CNc3cc(NC(=O)[C@H]4C[C@@H]4c4cccc(Cl)c4)ncn3)nn12 [Example 55, (1S,2S)-2-(3-chlorophenyl)-N-(6-(((7-(2-cyano-2-methylpropyl)-5-cyclopropylpyrazolo[1,5-a]pyridin-2-yl)methyl)amino)pyrimidin-4-yl)cyclopropane-1-carboxamide] | 0.0025 to 0.025 µM
22 | CN1CCN(c2cc(C3CC3)cn3nc(CNc4cc(NC(=O)[C@H]5C[C@@H]5c5cccc(Cl)c5)ncn4)nc23)CC1 [Example 58, (1S,2S)-2-(3-chlorophenyl)-N-(6-(((6-cyclopropyl-8-(4-methylpiperazin-1-yl)-[1,2,4]triazolo[1,5-a]pyridin-2-yl)methyl)amino)pyrimidin-4-yl)cyclopropane-1-carboxamide] | 0.0025 to 0.025 µM
23 | CN1CCN(c2cc(Cl)cc3cc(CNc4cc(NC(=O)[C@H]5C[C@@H]5c5cccc(Cl)c5)ncn4)cnc23)CC1 [Example 59, (1S,2S)—N-(6-(((6-chloro-8-(4-methylpiperazin-1-yl)quinolin-3-yl)methyl)amino)pyrimidin-4-yl)-2-(3-chlorophenyl)cyclopropane-1-carboxamide] | 0.0025 to 0.025 µM
24 | CN1C(=O)CN(c2cc(C3CC3)nn3cc(CNc4cc(NC(=O)[C@H]5C[C@@H]5c5cccc(Cl)c5)ncn4)nc23)C1=O [Example 62, (S,2S)-2-(3-chlorophenyl)-N-(6-(((6-cyclopropyl-8-(3-methyl-2,4-dioxoimidazolidin-1-yl)imidazo[1,2-b]pyridazin-2-yl)methyl)amino)pyrimidin-4-yl)cyclopropane-1-carboxamide] | 0.0025 to 0.025 µM
25 | O=C(Nc1cc(N2C[C@@H](O)C[C@@H]2C(=O)Nc2ccc(C3CC3)cc2)ncn1)[C@H]1C[C@@H]1c1cccc(Cl)c1 [Example 64, (2R,4S)-1-(6-((1S,2S)-2-(3-chlorophenyl)cyclopropane-1-carboxamido)pyrimidin-4-yl)-N-(4-cyclopropylphenyl)-4-hydroxypyrrolidine-2-carboxamide] | > 0.5 µM
26 | CN(C(=O)[C@H]1C[C@H](O)CN1c1cc(NC(=O)[C@H]2C[C@@H]2c2cccc(Cl)c2)ncn1)c1ccc(C2CC2)cc1 [Example 65, (2R,4S)-1-(6-((1S,2S)-2-(3-chlorophenyl)cyclopropane-1-carboxamido)pyrimidin-4-yl)-N-(4-cyclopropylphenyl)-4-hydroxy-N-methylpyrrolidine-2-carboxamide] | > 0.5 µM

— patent US20240226106A1, “INHIBITORS OF PLASMA KALLIKREIN” (SHIRE HUMAN GENETIC THERAPIES, INC., priority 2021, published 2024)
